Test results reported in ChEMBL document CHEMBL6153072, “Metabolically Stable Adenylation Inhibitors of Biotin Protein Ligase as Antibacterial Agents” (J Med Chem, 2025).

Key:
[1] = AUC (0 to 24 hrs) in female CD-1 mouse at 5 mg/kg, iv administered […] measured after 24 hrs by LC-MS/MS analysis; format: ADME, organism-based; settings: in vivo
[2] = test system: Mycobacterium tuberculosis; assay: Antimicrobial activity against wild type Mycobacterium tuberculosis H37Rv assessed as inhibition of microbial growth incubated for 14 days in biotin-deficient GAST medium by broth microdilution assay; format: functional; settings: 336 h, time 14 day
[3] = test system: HepG2; assay: Cytotoxicity against human HepG2 cells assessed as inhibition of cell viability preincubated for 24 hrs and measured after 4 hrs by XTT assay; format: functional, cell-based
[4] = Half life in female CD-1 mouse at 5 mg/kg, iv administered […] measured after 24 hrs by LC-MS/MS analysis; format: ADME, organism-based; settings: in vivo
[5] = Drug metabolism in female CD-1 mouse assessed as AUC (0 to 24 hrs) of adenosine-5-sulfamide metabolite at 5 mg/kg, iv administered […] measured after 24 hrs by LC-MS/MS analysis; format: ADME, organism-based; settings: in vivo
[6] = Volume of distribution in female CD-1 mouse at 5 mg/kg, iv administered […] measured after 24 hrs by LC-MS/MS analysis; format: ADME, organism-based; settings: in vivo
[7] = Clearance in female CD-1 mouse at 5 mg/kg, iv administered […] measured after 24 hrs by LC-MS/MS analysis; format: ADME, organism-based; settings: in vivo
[8] = test system: Staphylococcus aureus; assay: Antimicrobial activity against methicillin-sensitive Staphylococcus aureus […] assessed as inhibition of microbial growth incubated for 14 days in biotin-deficient GAST medium by broth microdilution assay; format: functional; settings: 336 h, time 14 day
[9] = molecular target: T1, Biotin--[acetyl-CoA-carboxylase] ligase (Mycobacterium tuberculosis (strain ATCC 25618 / H37Rv)) (UniProt I6YFP0); assay: Binding affinity to Mycobacterium tuberculosis BPL assessed as change in entropy by isothermal titration calorimetry
T1 sequence (whole entry): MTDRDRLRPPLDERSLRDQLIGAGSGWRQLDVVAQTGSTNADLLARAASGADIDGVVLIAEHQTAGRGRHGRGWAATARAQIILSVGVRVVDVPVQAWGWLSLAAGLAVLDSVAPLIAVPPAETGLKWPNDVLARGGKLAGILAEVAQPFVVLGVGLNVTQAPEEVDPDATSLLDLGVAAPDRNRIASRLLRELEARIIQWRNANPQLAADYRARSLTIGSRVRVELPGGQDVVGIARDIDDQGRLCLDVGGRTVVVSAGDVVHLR

[10] = test system: Staphylococcus aureus; assay: Antimicrobial activity against methicillin-resistant Staphylococcus aureus FPR3757 assessed as inhibition of microbial growth incubated for 14 days in biotin-deficient GAST medium by broth microdilution assay; format: functional; settings: FPR3757, 336 h, time 14 day
[11] = molecular target: T1, Biotin--[acetyl-CoA-carboxylase] ligase (Mycobacterium tuberculosis (strain ATCC 25618 / H37Rv)); assay: Binding affinity to Mycobacterium tuberculosis BPL assessed as change in enthalpy by isothermal titration calorimetry
[12] = molecular target: T2, Biotin--[acetyl-CoA-carboxylase] ligase (Mycobacterium tuberculosis (strain ATCC 25618 / H37Rv), UniProt I6YFP0); assay: Binding affinity to Mycobacterium tuberculosis BPL assessed as dissociation constant by isothermal titration calorimetry
T2 sequence (I6YFP0 whole entry): T1 sequence (whole entry)

[13] = molecular target: T1, Biotin--[acetyl-CoA-carboxylase] ligase (Mycobacterium tuberculosis (strain ATCC 25618 / H37Rv)); assay: Binding affinity to Mycobacterium tuberculosis BPL assessed as change in gibbs free energy by isothermal titration calorimetry
[14] = Cytotoxicity against African green monkey Vero cells; format: toxicity, cell-based, Chlorocebus sabaeus
[15] = Hepatic clearance in female CD-1 mouse at 5 mg/kg, iv administered […] measured after 24 hrs by LC-MS/MS analysis; format: ADME, organism-based; settings: in vivo
[16] = Renal clearance in female CD-1 mouse at 5 mg/kg, iv administered […] measured after 24 hrs by LC-MS/MS analysis; format: ADME, organism-based; settings: in vivo
[17] = Half life in female CD-1 mouse at 10 mg/kg, iv administered via gavage measured after 24 hrs by LC-MS/MS analysis; settings: in vivo
[18] = Clearance in female CD-1 mouse at 10 mg/kg, iv administered […] measured after 24 hrs by LC-MS/MS analysis; format: ADME, organism-based; settings: in vivo
[19] = AUC (0 to 24 hrs) in female CD-1 mouse at 10 mg/kg, iv administered […] measured after 24 hrs by LC-MS/MS analysis; format: ADME, organism-based; settings: in vivo
[20] = Volume of distribution in female CD-1 mouse at 10 mg/kg, iv administered […] measured after 24 hrs by LC-MS/MS analysis; format: ADME, organism-based; settings: in vivo

In the case of `Nc1ncnc2c1ncn2[C@@H]1O[C@H](CNS(=O)(=O)[N-]C(=O)NCCC[C@@H]2SC[C@@H]3NC(=O)N[C@@H]32)[C@@H](O)[C@H]1O.[Na+]`, the AUC(0-t) at 24 h [1] is reported as 11200 ng·h/mL, the MIC50 [2] is reported as 20 µM and the IC50 [3] is reported as over 100000 nM. For the same compound, the half-life [4] was 42 min, the AUC [5] was 32 ng·h/mL and the Vd [6] was 0.45 L/kg. It also gave a clearance [7] of 7 mL/min/kg, an MIC50 [8] of 0.2 µM and a TdeltaS [9] of 0.5 kcal/mol. It also gave an MIC50 [10] of 0.2 µM.
Compound `CN(C(=O)CCCC[C@@H]1SC[C@@H]2NC(=O)N[C@@H]21)S(=O)(=O)NC[C@H]1O[C@@H](n2cnc3c(N)ncnc32)[C@H](O)[C@@H]1O` has an MIC50 [2] of over 100 µM, a deltaH [11] of -9.6 kcal/mol and a Kd [12] of 120 nM. It also gave an MIC50 [8] of over 30 µM, a TdeltaS [9] of 0.14 kcal/mol and a deltaG [13] of -9.7 kcal/mol. It also gave an MIC50 [10] of over 30 µM.
In the case of `Nc1ncnc2c1ncn2[C@@H]1O[C@H](Cn2cc(CCCCC[C@@H]3SC[C@@H]4NC(=O)N[C@@H]43)nn2)[C@@H](O)[C@H]1O`, the MIC50 [2] is reported as over 100 µM, the deltaH [11] is reported as -14.2 kcal/mol and the Kd [12] is reported as 62 nM. For the same compound, the MIC50 [8] was 30 µM, the TdeltaS [9] was 4.3 kcal/mol and the deltaG [13] was -9.9 kcal/mol. The MIC50 [10] was 15 µM.
Compound `Nc1cccc2c1ncn2CCCCNS(=O)(=O)NC(=O)CCCC[C@@H]1SC[C@@H]2NC(=O)N[C@@H]21` has an MIC50 [2] of 21 µM, a deltaH [11] of -12.3 kcal/mol and a Kd [12] of 220 nM. The MIC50 [8] was over 30 µM, the TdeltaS [9] was 3.2 kcal/mol and the deltaG [13] was -9.1 kcal/mol. It also gave an MIC50 [10] of over 30 µM.
`CC(CCC[C@@H]1SC[C@@H]2NC(=O)N[C@@H]21)C(=O)[N-]S(=O)(=O)NC[C@H]1O[C@@H](n2cnc3c(N)ncnc32)[C@H](O)[C@@H]1O.[Na+]` (stereo partly drawn) showed an AUC(0-t) at 24 h [1] of 8640 ng·h/mL, an MIC50 [2] of 50 µM and a deltaH [11] of -11.9 kcal/mol. For the same compound, the half-life [4] was 39 min, the Kd [12] was 22 nM and the AUC [5] was 29 ng·h/mL. The Vd [6] was 0.54 L/kg, the clearance [7] was 10 mL/min/kg and the MIC50 [8] was 0.41 µM. It also gave a TdeltaS [9] of 1.5 kcal/mol, a deltaG [13] of -10.4 kcal/mol and an MIC50 [10] of 0.2 µM.
`Nc1ncnc2c1ncn2[C@@H]1O[C@H](CNS(N)(=O)=O)[C@@H](O)[C@H]1O` gave an IC50 [14] of 6000 nM.
In the case of `C[C@@H]1NC(=O)N[C@@H]1CCCCCC(=O)NS(=O)(=O)NC[C@H]1O[C@@H](n2cnc3c(N)cccc32)[C@H](O)[C@@H]1O`, the MIC50 [2] is reported as over 100 µM, the deltaH [11] is reported as -13.6 kcal/mol and the Kd [12] is reported as 19 nM. For the same compound, the MIC50 [8] was over 30 µM, the TdeltaS [9] was 3 kcal/mol and the deltaG [13] was -10.6 kcal/mol. The MIC50 [10] was over 30 µM.
In the case of `Nc1ncnc2c1ncn2[C@@H]1O[C@H](Cn2cc(C(=O)CCCC[C@@H]3SC[C@@H]4NC(=O)N[C@@H]43)nn2)[C@@H](O)[C@H]1O`, the MIC50 [2] is reported as over 100 µM, the MIC50 [8] is reported as 29.4 µM and the MIC50 [10] is reported as 29.4 µM.
`Nc1cccc2c1ncn2[C@@H]1O[C@H](CNS(=O)(=O)NC(=O)CCCC[C@@H]2SC[C@@H]3NC(=O)N[C@@H]32)[C@@H](F)[C@H]1O` showed an MIC50 [2] of over 100 µM, a deltaH [11] of -13.9 kcal/mol and a Kd [12] of 228 nM. The MIC50 [8] was over 30 µM, the TdeltaS [9] was 4.8 kcal/mol and the deltaG [13] was -9.1 kcal/mol. It also gave an MIC50 [10] of over 30 µM.
`Nc1ncnc2c1ncn2[C@@H]1O[C@H](CNS(=O)(=O)[N-]C(=O)CCCC[C@@H]2SC[C@@H]3NC(=O)N[C@@H]32)[C@@H](O)[C@H]1O.[Na+]` showed an AUC(0-t) at 24 h [1] of 1450 ng·h/mL, an MIC50 [2] of 2.2 µM and a deltaH [11] of -18.9 kcal/mol. The half-life [4] was 11 min, the CLH [15] was 22.5 mL/min/kg and the AUC [5] was 782 ng·h/mL. For the same compound, the Vd [6] was 0.94 L/kg, the clearance [7] was 58 mL/min/kg and the MIC50 [8] was 0.21 µM. For the same compound, the TdeltaS [9] was 6.6 kcal/mol, the deltaG [13] was -12.4 kcal/mol and the MIC50 [10] was 0.02 µM. The CL renal at 24 h [16] was 22.5 mL/min/kg.
For `Nc1ncnc2c1ncn2[C@@H]1O[C@H](CNS(=O)(=O)NC(=O)NCCCCC[C@@H]2SC[C@@H]3NC(=O)N[C@@H]32)[C@@H](O)[C@H]1O`, the MIC50 [2] was over 100 µM, the deltaH [11] was -9.9 kcal/mol and the Kd [12] was 110 nM. The MIC50 [8] was 25.7 µM, the TdeltaS [9] was 0.48 kcal/mol and the deltaG [13] was -9.4 kcal/mol. It also gave an MIC50 [10] of 12.8 µM.
`CC(=O)NC[C@H]1CN(c2ccc(N3CCOCC3)c(F)c2)C(=O)O1` [LINEZOLID] showed a half-life at 24 h [17] of 33 min, a clearance [18] of 16.3 mL/min/kg and an AUC(0-t) at 24 h [19] of 11000 ng·h/mL. The Vd [20] was 0.63 L/kg.
Compound `Nc1ncnc2c1ncn2[C@@H]1O[C@H](CNS(=O)(=O)NC(=S)NCCCC[C@@H]2SC[C@@H]3NC(=O)N[C@@H]32)[C@@H](O)[C@H]1O` has an MIC50 [2] of over 100 µM, a deltaH [11] of -14.2 kcal/mol and a Kd [12] of 60 nM. For the same compound, the MIC50 [8] was 28.7 µM, the TdeltaS [9] was 4.3 kcal/mol and the deltaG [13] was -9.9 kcal/mol. For the same compound, the MIC50 [10] was 7.2 µM.
In the case of `Nc1ncnc2c1ncn2[C@@H]1O[C@H](CNS(=O)(=O)NCCCCC[C@@H]2SC[C@@H]3NC(=O)N[C@@H]32)[C@@H](O)[C@H]1O`, the MIC50 [2] is reported as over 100 µM, the deltaH [11] is reported as -23.2 kcal/mol and the Kd [12] is reported as 23 nM. The MIC50 [8] was 28.7 µM, the TdeltaS [9] was 12.8 kcal/mol and the deltaG [13] was -10.4 kcal/mol. It also gave an MIC50 [10] of 14.4 µM.
Work on `Nc1ncnc2c1ncn2[C@@H]1O[C@H](CNS(=O)(=O)NC(=O)NCCCC[C@@H]2SC[C@@H]3NC(=O)N[C@@H]32)[C@@H](O)[C@H]1O` yielded an MIC50 [2] of over 100 µM, a deltaH [11] of -11.5 kcal/mol and a Kd [12] of 55 nM. The MIC50 [8] was 0.25 µM, the TdeltaS [9] was 1.6 kcal/mol and the deltaG [13] was -9.9 kcal/mol. It also gave an MIC50 [10] of 0.12 µM.
Compound `Nc1cccc2c1ncn2[C@@H]1O[C@H](CNS(=O)(=O)NC(=O)CCCC[C@@H]2SC[C@@H]3NC(=O)N[C@@H]32)[C@@H](O)[C@H]1O` has an MIC50 [2] of over 100 µM, a deltaH [11] of -13.9 kcal/mol and a Kd [12] of 220 nM. It also gave an MIC50 [8] of over 30 µM, a TdeltaS [9] of 4.5 kcal/mol and a deltaG [13] of -9.4 kcal/mol. It also gave an MIC50 [10] of over 30 µM.
